# Measured values: patent US20120003339A1, “COMPOSITIONS AND METHODS FOR CONTROLLING BLOOD GLUCOSE LEVELS” (priority 2010, published 2012)
# Experiments:
# Type in all cases: in vivo, human
# [1] = Example III: blood glucose levels in a morbidly obese subject with type 2 diabetes; conditions: person, 380 lb, on traditional medication
# Procedure: A subject weighed 380 lb was diagnosed with type 2 diabetes and was considered morbidly obese. The subject was prescribed Metformin. With traditional medication their blood glucose levels were at about 19 mmol/L, well above the normal range. Although the subject was considered for gastric bypass surgery, their medical doctors would not operate because their blood glucose could not be controlled.
# The subject started taking 25 mg each of Gudmar, Kalijiri, Kariyatu, and Neempan tablets three times a day. Two weeks after the subject started the taking the herbal composition of the invention, the subject's blood glucose levels had dropped to 5.5 mmol/L, within the normal range. As a result, the subject was able to proceed with the surgery.
# [2] = Example II: morning (fasting) and two-hour after eating blood glucose readings, A1c and side effects in a subject with type 2 diabetes; conditions: 500 mg once a day
# Procedure: A subject had been diagnosed with type 2 diabetes. Their fasting glucose reading was 11.6 mmol/L and A1c was 8.9%. Due to arthritis in their knee, exercise was not an option. […] They were prescribed 500 mg of Ratio-Metformin once a day. […] According to the endocrinologist, the subject's morning readings (fasting blood glucose levels) were in the range from 8.1 to 10.8 mmol/L, and their two-hour after eating readings were 10 to 13.8 mmol/L.
# Due to the adverse side effects of Metformin, the subject decided to stop taking the prescribed daily Metformin and replace it with the composition and method of the present invention. […]
# The first cycle was about three months in length. […] Within a week that the subject was treated with the method of the invention, their morning readings were in the 4 to 6.5 mmol/L range and their two hours after eating range were well below 9 mmol/L. It should be noted that, for three weeks during this period, the patient was on vacation in France, enjoying fine French food and wine. A month after finishing the first cycle, the subject took a second fasting sugar test and a A1c test, the readings were 6.6 mmol/L and 6%, respectively.
# The subject was treated with three cycles of the composition and method of the present invention. […] Their morning readings were in the range of 4.3 to 6.5 mmol/L, and their two hour after eating readings were in the range of 6 to 8.5 mmol/L. […]
# [3] = Example I: blood glucose levels and side effects in a subject with type 2 diabetes; conditions: person, blood glucose 17 to 19 mmol/L at diagnosis, first prescribed drug
Structure (SMILES),blood glucose levels [1],side effect (in words) [2],blood glucose levels (effect in words) ([2]; fasting glucose 11.6 mmol/L and A1c 8.9% at diagnosis),blood glucose levels (effect in words) [3]
CN(C)C(=N)N=C(N)N [Metformin],about 19 mmol/L,"left them feeling confused, “in a fog.”",did reduce their blood glucose levels,
"CN(CCOc1ccc(CC2SC(=O)NC2=O)cc1)c1ccccn1 (stereo not shown) [Avandia, rosiglitazone]",,,,did not reduce their blood glucose levels to the normal range
